Source: PMC5848173, “PhcrTx2, a New Crab-Paralyzing Peptide Toxin from the Sea Anemone Phymanthus crucifer” (Toxins, 2018)
pIC50: −log10 of the molar value. No end group written: not given here.

Assays:
[1] = tested on: glutamate-gated currents in snail neurons; experiment: Glutamate-gated currents in isolated snail neurons (whole-cell patch clamp); type: cell-based, Helix aspersa; settings: glutamate 1 mM
Description: The effects of PhcrTx2 were studied in isolated mammalian and snail neurons using the whole cell patch-clamp technique. Animal care and procedures were in accordance with the National Institutes of Health Guide for the Care and Use of Laboratory Animals. All efforts were made to minimize animal suffering. The number of animals used for this work was kept to the minimum necessary for a meaningful interpretation of the data.
Experiments to study glutamate-activated currents were performed in isolated neurons of the land snail Helix aspersa. The subesophageal mass of the snail was dissected, and put into the Ringer solution for snails (Supplementary Table S4) containing trypsin (2 mg/mL for 30 min, at 37 °C). After enzymatic treatment, the preparation was washed with normal solution for snails, and the neurons were mechanically dissociated, plated on glass coverslips (Corning) pretreated with poly-D-lysine (Sigma-Aldrich), and placed onto 35-mm culture dishes (Corning). Neurons were maintained at room temperature (23–25 °C) for at least 30 min before using, in order to allow the isolated cells to adhere to the coverslips. The whole-cell recording was carried out using the same experimental conditions that were described in Section 5.2.2.
Glutamate currents were elicited by a fast glutamate application (about 40 ms) by shifting one of the three outlets of a fast change perfusion system (SF-77B, Warner Inst., Hamden, CT, USA) while keeping the cell at a holding potential (Vh) of −100 mV. The interval between glutamate applications was one minute, to guarantee that the current completely recovered from desensitization. The pH of glutamate solution was checked before each experiment to avoid the potential activation of proton-gated currents. At the beginning of this study, experiments were designed to compare the effect of the toxin using two application protocols.
The solutions used in the experiments are depicted in Supplementary Table S4. The concentration-response curves were fitted to the Hill equation following the procedure described in Section 5.2.2.

[2] = Anthopleura elegantissima toxins; ref [5],[38]; cited from earlier work
Description: (§1) The inhibition of PhcrTx2 on glutamate-gated currents in snail neurons, and also on voltage-activated K^+ currents in DRG neurons, seems to be of about similar potency and slightly different in efficacy. PhcrTx2 also acted on voltage-dependent Na^+-channels of DRG neurons but with lower efficacy, in comparison with its effect on K^+ channels. […] These facts resemble previous re ...

[3] = tested on: insect and mammalian Nav channels; settings: ref [38],[58]; cited from earlier work
Description: as §1

[4] = tested on: ASIC3; settings: ref [38], cited from earlier work
Description: as §1

[5] = tested on: Kv3.4 channels; settings: ref [38],[58]; cited from earlier work
Description: as §1

[6] = tested on: heteromeric channels that contain the ASIC3 subunit; settings: except the ASIC2a + 3 current; ref [38]; cited from earlier work
Description: as §1

[7] = tested on: crabs; settings: Antheopsis maculata toxin; ref [21]; cited from earlier work
Description: Many of these peptides have been classified as voltage-gated sodium channel toxins, whereas few other crab-paralyzing peptides act on different targets, such as voltage-gated potassium channels. On the other hand, other paralyzing toxins seem to belong to new classes of toxins. In this work, we found a diversity of paralyzing toxins from the sea anemone P. crucifer by using a crab toxicity assay for biological activity screening during the purification process. Sixteen chromatographic fractions sh ... || (+ 1 further places)

With `N[C@@H](CCC(=O)O)C(=O)O` [glutamate] the “glutamate-evoked current at positive potential” value ([1]; 80 mV, n = 5) was 0.3 ± 0.1 nA, the glutamate-evoked current ([1]; holding potential −100 mV, n = 5, average) was “about 2.6 ± 1.4 nA” and the “reversal potential of glutamate-evoked current” value ([1]; average, "close to") was about 0 mV.
For “APETx1: toxin from Anthopleura elegantissima (UniProtKB P61541) (GTTCYCGKTIGIYWFGTKTCPSNRGYTGSCGYFLGICCYPVD; UniProt P61541 1-42, looked up)”, the target selectivity [2] is listed as “lack of target selectivity”.
For “APETx2: toxin from Anthopleura elegantissima, ASIC3 blocker (UniProtKB P61542) (GTACSCGNSKGIYWFYRPSCPTDRGYTGSCRYFLGTCCTPAD; UniProt P61542 1-42, looked up)”, the “effect on Nav channels” value [3] is listed as “inhibiting the sodium conductance without affecting the inactivation and shifting activation to a depolarizing direction”, the pIC50 ([4]; reversible blocker, read-out: IC50, peak component of the ASIC3 current) is listed as 7.20 and the “effect on the sustained component of ASIC3 current” value ([4]; sustained component) is listed as “no effect”. The “inhibition of Kv3.4 channels” value [5] was “partially inhibits Kv3.4 channels”, the target selectivity [2] was “lack of target selectivity” and the “effect on heteromeric channels containing ASIC3” value [6] was “affects heteromeric channels that contain the ASIC3 subunit, except the ASIC2a + 3 current”.
For “Am II: crab-paralyzing toxin from Antheopsis maculata (UniProtKB P69930) (ALLSCRCEGKTEYGDKWLFHGGCPNNYGYNYKCFMKPGAVCCYPQN; ends and bridges not checked; cysteine pairing not given here; UniProt P69930 33-78, looked up)”, the crab-paralyzing activity [7] is given as “crab-paralyzing toxin”.
